From patent US20260216110A1, “COMPOUND USEFUL AS THYROID HORMONE RECEPTOR ß-SELECTIVE THYROID HORMONE ANALOG” (NATIONAL UNIVERSITY CORPORATION TOKAI NATIONAL HIGHER …, priority 2022, published 2026)
“Also recorded” adds a separate entry of the source.

Assays:
[1] = Serum ALT level (hepatotoxicity); type: in vivo, C57BL/6J mice; conditions: compared to the vehicle
Procedure: (§1) Specifically, the procedure performed is described below.
The blood samples collected in Test Example 4 were left to stand at room temperature for 1 hour, and then centrifuged at 4° C., 800×g, for 15 minutes, followed by collecting the supernatant. The serum ALT levels were measured using an Alanine Aminotransferase (ALT or SGPT) Activity Colorimetric/Fluorometric Assay Kit (BioVision) according to the manufacturer's protocol.

Ldlr, Srebp1c = test: Further testing: LDL uptake, Ldlr and Srebp1c expression; type: in vivo
[2] = Bone structure parameters (bone metabolism); type: in vivo; conditions: mice of Test Example 4
Procedure: The effect of the test compounds on bone metabolism was investigated. Specifically, bone structure parameters (bone volume: BV/TV, trabecular number: Tb.N, trabecular separation: Tb.Sp, trabecular thickness: Tb.Th, connectivity density: Conn.D) were measured using thin sections prepared from the bones of mice in Test Example 4.

[3] = tested on: lipid droplets in hepatocytes; test: Oil Red O staining of liver sections, high-fat diet mice; type: in vivo, C57BL/6J mice; conditions: HFD mice, 1 μmol/kg-day i.p. for 3 weeks, compared to the vehicle
Procedure: Lipid droplets are organelles for storing neutral lipids, such as triglycerides and cholesterol esters. Excessive accumulation of lipid droplets in hepatocytes is characteristic of non-alcoholic fatty liver disease (NAFLD). […] Specifically, the procedure performed is described below.
(§2) Male 7-week-old C57BL/6J mice were individually housed in cages (Innocages, ORIENTAL GIKEN) and kept warm at 23° C. with a 12-hour light-dark cycle starting at 8:00 AM. After 1 week of acclimation, the animals were given either a normal diet (ND; 10 kcal % fat, D12450B, Research Diets) or a high-fat diet (HFD; 60 kcal % fat, D12492, Research Diets). […] The injection was given 6 hours after lights on. Food consumption and body weight were measured weekly. Food and water were provided to the animals ad libitum. After 3 weeks of daily injections, whole blood was collected under isoflurane anesthesia, and the heart and liver were harvested. The liver was frozen and stored at −80° C.
20 μm sections were prepared from the frozen liver tissues using a cryostat (CM3050 S, Leica). The sections were mounted on silane-coated glass slides, dried at room temperature, and stored at −80° C. until use. Before staining, the sections were fixed with 1% PFA/1×PBS, pH of 7.4 (Gibco), for 5 minutes, then immersed in 1×PBS for 5 minutes, distilled water for 5 minutes, and a 60% 2-propanol solution for 1 minute. The Oil Red O staining solution was prepared by mixing 0.36 g of Oil Red O (Sigma) with 120 mL of 2-propanol and 80 mL of distilled water, letting it stand at room temperature for 1 hour, filtering the solution, and then leaving it overnight at 37° C. The sections were immersed in the Oil Red O staining solution at 37° C. for 15 minutes, and then rinsed in 60% 2-propanol for 1 minute and in distilled water for 1 minute. Thereafter, the sections were counterstained with Meyer's hematoxylin. […] The area of red-stained lipid droplets was quantified using Image J (NIH), and the percentage of the stained area in the total image area was calculated. Three sections per mouse were analyzed.

[4] = tested on: left ventricular cardiomyocytes; test: Transnuclear width of left ventricular cardiomyocytes; type: in vivo, C57BL/6J mice; conditions: T3; GC-1 high dose 1 μmol/kg BW/day; ZTA-261 dose not specified
Procedure: as §1
The cardiac tissues collected in Test Example 4 were fixed, dehydrated, and paraffin-infiltrated using an automatic fixation and encapsulation device (Sakura Finetek Japan). Paraffin blocks were prepared using a Tissue Tech TEC 6 (Sakura Finetek Japan), and 5 μm thick transverse sections were prepared using a microtome (Leica). The sections were deparaffinized, rehydrated, and then immersed in a Meyer's hematoxylin solution (FUJIFILM Wako Pure Chemical Industries, Ltd.) and in an eosin solution. Thereafter, the sections were dehydrated and mounted using Entellan new (Merck). The sections were observed under a microscope (BX43; Olympus) at 400× magnification, and digital images were captured using cellSens (Olympus). One hundred cells were randomly selected from the left ventricle of each mouse, and their transnuclear width was measured using Image J (NIH) according to a previously reported method.

[5] = Heart weight (cardiac hypertrophy); type: in vivo, C57BL/6J mice
Procedure: as §2
Left ventricular hypertrophy is often associated with hyperthyroidism caused by increased heart rate mediated by hTHRα. Therefore, hTHRβ-selective analogs are expected to avoid this adverse effect on the heart. To examine whether cardiac hypertrophy was induced, the weight of the heart collected in Test Example 4 was measured.

[6] = tested on: ligand-binding domain of THRα or THRβ; test: Luciferase reporter assay for THRβ selectivity in GloResponse 9XGAL4UAS-luc2P HEK293 cells; type: cell-based; conditions: EC50-based, THRα vs THRβ
Procedure: as §1
The cells used and cell culture were as follows. GloResponse 9XGAL4UAS-luc2P HEK293 cells (Promega) were stably transfected with pFN26A (BIND) (Promega) containing the coding region of the ligand-binding domain of THRα or THRβ. The cells were cultured in DMEM supplemented with 10% FBS, 200 μg/mL Hygromycin, and 750 μg/mL G418 in 90 mm cell culture dishes at 37° C. with 5% CO2. The cells were subcultured every 3 days and used in a luciferase reporter assay.
The cells were suspended in an assay medium (DMEM supplemented with 5% charcoal/dextran-treated FBS, 25 mM HEPES, and a 4 mM L-Alanyl-L-glutamine solution) and seeded at 2×10^4 cells/well in 96-well plates coated with poly-L-lysine. After incubation at 37° C. with 5% CO2 for 24 hours, each test compound was added at various concentrations. The following day, firefly luciferase luminescence was measured using a Dual-Glo Luciferase Assay System (Promega) with a microplate reader (SpectraMax i3, Molecular Devices). The luminescence of Renilla luciferase was used as an internal standard.

THRα = molecular target: T1, THRα (Homo sapiens, UniProt P10827); conditions: relative to T3; cited from earlier work
T1 sequence (P10827 1-410 isoform P10827-2): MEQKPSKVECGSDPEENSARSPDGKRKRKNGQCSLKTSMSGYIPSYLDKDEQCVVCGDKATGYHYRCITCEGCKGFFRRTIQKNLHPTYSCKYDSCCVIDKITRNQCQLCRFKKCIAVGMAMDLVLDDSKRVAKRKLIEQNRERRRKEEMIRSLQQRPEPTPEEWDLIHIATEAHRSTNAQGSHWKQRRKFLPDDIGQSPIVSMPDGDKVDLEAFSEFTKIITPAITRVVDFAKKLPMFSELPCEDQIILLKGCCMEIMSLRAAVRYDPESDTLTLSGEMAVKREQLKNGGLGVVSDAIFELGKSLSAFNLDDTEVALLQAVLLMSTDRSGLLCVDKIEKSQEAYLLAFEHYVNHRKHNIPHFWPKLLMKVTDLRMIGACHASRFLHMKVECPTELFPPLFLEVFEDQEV

full-length human THRα = molecular target: T2, full-length human THRα (Homo sapiens, UniProt P10827); test: Radioligand-displacement assay ([125I]-T3), THRα; conditions: ratio of the IC50 values THRα/THRβ
T2 sequence (P10827 1-410 isoform P10827-2): T1 sequence (P10827 1-410 isoform P10827-2)
Procedure: Specifically, the assessment was performed as described below by using full-length human THRα and THRβ synthesized by in vitro transcription-translation.
The reaction mixture was incubated overnight at 4° C. A nitrocellulose membrane (Optitran, 0.45 μm in pore size, Whatman) pre-blocked with E-400 buffer was placed in a dot-blot apparatus (Minifold I, GE Healthcare), and the reaction mixture was filtered through the membrane, followed by washing three times with 200 μL of E-400 buffer. […] Radioactive signals were scanned using a Typhoon FLA9000 (GE Healthcare) and quantified by using Image Quant TL software (GE Healthcare). The IC50 value of each competitor drug was calculated by fitting the dose response data to a one-site competition model using GraphPad Prism version 7.0 (GraphPad Software).

Row | Structure (SMILES) | serum ALT levels ([1]; high dose 1 μmol/kg BW/day) | serum ALT levels ([1]; low dose 0.1 μmol/kg BW/day) | cellular uptake of LDL (Ldlr, Srebp1c) | expression of Ldlr (Ldlr, Srebp1c) | expression of Srebp1c (Ldlr, Srebp1c) | bone structure parameters (BV/TV, Tb.N, Tb.Sp, Tb.Th, Conn.D) [2] | Oil Red O-positive area [3] | width of cardiomyocytes (transnuclear width, left ventricle) [4] | heart weight ([5]; high dose 1 μmol/kg BW/day) | heart weight ([5]; low dose 0.1 μmol/kg BW/day) | THRβ selectivity [6] | affinity for THRα lower than T3 (THRα) | affinity for THRα lower than affinity for THRβ (full-length human THRα)
1 | O=C(O)Cc1cc(C(F)(F)F)c(Cc2ccc(O)c3ccccc23)c(C(F)(F)F)c1 [ZTA-261] | did not show a significant increase | did not show a significant increase | promoted | increased | decreased | no significant changes | significantly reduced; also recorded: the most effective, reducing the Oil Red O-positive area to a level comparable to the ND-administered group | no significant increase | No such effect was observed | No such effect was observed |  |  | 
2 | Cc1cc(OCC(=O)O)cc(C)c1Cc1ccc(O)c2ccccc12 [MY-53] |  |  |  |  |  |  |  |  |  |  | found to show THRβ selectivity |  | 
3 | N[C@@H](Cc1cc(I)c(Oc2ccc(O)c(I)c2)c(I)c1)C(=O)O [T3, triiodothyronine] |  |  | promoted | increased | decreased | significantly worsened | significantly reduced | increased | significantly increased |  |  |  | 
4 | Cc1cc(OCC(=O)O)cc(C)c1Cc1ccc(O)c(C(C)C)c1 [GC-1] | significant increase |  | promoted | increased | decreased | significantly worsened | significantly reduced | increased | significantly increased |  |  | 10 fold | about 30 times
5 | O=C(O)COc1cc(C(F)(F)F)c(Cc2ccc(O)c3ccccc23)c(C(F)(F)F)c1 [ZTA-245] |  |  |  |  |  |  |  |  |  |  | found to show THRβ selectivity |  | 
